In patent publication US20140010801A1, “Compositions and Methods for Restoring or Rejuvenating Stem/Progenitor Cell Function” (UNIVERSITY OF PITTSBURGH - OF THE COMMONWEALTH SYSTEM OF …, priority 2012, published 2014):

What was measured:
[1] = tested on: Ercc1^−/Δ mice; assay: Chronic XJB-5-131 treatment of Ercc1−/Δ mice; assay type: in vivo, mouse
[2] = tested on: aged WT MDSPCs; assay: Myogenic potential (fusion index) of aged MDSPCs under IKK-β inhibition; assay type: cell-based, mouse; set-up: dose or concentration left out as unconfirmed; conditions: fusion conditions
Excerpt: Reduction of NF-κB enhances the myogenic differentiation potential and resistance to stress in MDSPCs isolated from naturally aged mice. To determine further whether the NF-κB signaling pathway plays a role in driving age-related stem cell dysfunction, whether pharmacologic inhibition of IKK-β would restore the myogenic potential of aged WT MDSPCs was examined. […] MDSPCs were isolated from 30 month old p65^+/− and 24 month old WT mice and compared the myogenic potential of 30 month old p65^+/− MDSPCs in vitro to naturally aged WT MDSPCs. The results confirmed that MDSPCs from p65^+/− aged mice (30 month) were more myogenic than MDSPCs from 24 month old WT mice.

[3] = tested on: Ercc1^−/− MEFs; assay: Reversal of senescence (SA-β-gal+) of Ercc1−/− MEFs; assay type: cell-based, mouse; conditions: within 24 hours of treatment
Protocol: FIG. 19 depicts analysis of the ability of an IKK inhibitor (IKKiVII) to rescue senescence (SA-β-gal+) […] MEFs after 24 hours of treatment.
To determine whether NF-κB is activated by endogenous genotoxic stress, which arises as a consequence of normal metabolism, Ercc1^−/− primary cells and mice were used, which are defective in DNA repair were used. Phosphorylated p65 (p-p65) and IκB were measured in nuclear and cytoplasmic extracts from early passage, congenic Ercc1^−/− and WT primary MEFs by immunoblot, and there was a >2-fold increase in nuclear p-p65 in Ercc1^−/− MEFs compared to WT, which correlated with an increase in the level of phosphorylated IκB (p-IκB) in the cytoplasm. EMSA was used to confirm increased NF-κB binding in nuclear extracts of Ercc1^−/− MEFs, which was abrogated by pretreatment of the samples with an anti-p65 antibody. To determine whether premature senescence of Ercc1^−/− MEFs is NF-κB dependent, the growth of Ercc1^−/−; p65^−/− MEFs was compared to congenic Ercc1−/− MEFs. Ercc1^−/− MEFs have reduced proliferation and increased replicative senescence as measured by SA-β-Gal staining, γ-H2AX foci and p16 expression. […] Furthermore, the Ercc1^−/−; p65^−/− MEFs had reduced ROS compared to Ercc1 cells as determined by staining mitochondria with DiOC6 and superoxide anion with MitoSOX. […]

CC(C)C[C@@H](/C=C/[C@H](Cc1ccccc1)C(=O)N1CCC[C@H]1C(=O)N[C@H](C(=O)N[C@@H](CCCNC(=O)OCc1ccccc1)C(=O)NC1CC(C)(C)N([O])C(C)(C)C1)C(C)C)NC(=O)OC(C)(C)C [XJB-5-131]
onset of aging-related degenerative changes [1]: delay the onset

NC(=O)Nc1sc(-c2ccc(F)cc2)cc1C(N)=O [IKKβ inhibitor IV]
fusion index of aged MDSPCs [2]: significantly increased

O=C(c1ccc(Nc2nccc(-c3cc4ccccc4s3)n2)cc1)N1CCC(N2CCCC2)CC1 [IKKiVII]
senescence of Ercc1^−/− MEFs (>60% of cells SA-βgal+) [3]: could be reversed
